{"source": "paper PMC6271477", "about": "“Effects of Single Amino Acid Substitution on the Biophysical Properties and Biological Activities of an Amphipathic α-Helical Antibacterial Peptide Against Gram-Negative Bacteria” (Molecules, 2014)", "key": {"[1]": {"experiment": "Tryptophan fluorescence in HEPES buffer", "format": "physicochemical", "conditions": "peptide 2 μM, excitation 280 nm", "from_the_text": "(§1) Upon peptide diffusion into the cytoplasmic membrane, evidence of selective interaction between peptides with bacterial versus mammalian cytoplasmic membrane was illustrated by the binding events of the peptides to anionic or zwitterionic lipid vesicles. The repositioning of the tryptophan indole group in an environment of reduced polarity upon membrane binding results in a blue shift in the fluorescence excitation maximum coupled with an enhancement of emission intensity. Lipid/peptide (L/P) ratios were maintained high enough at low peptide concentration (2 μM) in order to mimic the initial steps of peptide-membrane binding. The spectra were recorded as shown in Supplementary Figure S1. […] The significant blue shifts of Δλmax (17 to 23 nm) for all peptides upon exposure to PC/PG vesicles indicated a membrane partition state of Trp in negatively charged vesicles containing 30% anionic lipids (PG).\n(§2) Fluorescence emission spectra of peptide Trp residues were monitored by a Shimadzu RF-5301 spectrofluorometer. The excitation of wavelength was set as 280 nm and the emission spectra of each peptide, with or without lipid vesicles, were recorded between 300 and 450 nm. Thus three curves were recorded for each peptide, in HEPES buffer or with either PC/PG vesicles or PC/cholesterol vesicles. The blue shift of Trp residues in vesicles were referred to in buffer condition. The final concentrations of peptide and lipid were 2 μM and 100 μM (1/50), respectively."}, "E. coli DH5α": {"system": "E. coli DH5α", "experiment": "MIC by broth dilution", "format": "cell-based", "conditions": "MH broth, 5 × 10^5 CFU/mL, 24 h at 37 °C", "procedure": "(§3) Minimal inhibitory concentrations (MIC) were determined using a broth dilution method. Briefly, bacteria were grown overnight at 37 °C in Mueller–Hinton (MH) Broth, diluted in the same medium and transferred into 96-well microtiter plates (90 μL/well). Peptides were serially diluted using 0.2% bovine serum albumin containing 0.01% acetic acid and added to the microtiter plates in a volume of 10 μL per well to give a final concentration of 5 × 10^5 CFU/mL. MICs were defined as the lowest peptide concentration that inhibited bacterial growth after incubation for 24 h at 37 °C."}, "[2]": {"experiment": "Tryptophan fluorescence, binding to lipid vesicles", "conditions": "for Tryptophan fluorescence emission maximum: excitation 280 nm", "procedure": "as §1, with “The repositioning of the tryptophan indole group in an environment of reduced polarity upon membrane binding results in a blue shift in the fluorescence excitation maximum coupled with an enhancement of emission intensity.” left out\nUnilamellar vesicles were prepared by a standard procedure with either PC/PG (7:3, w/w) or PC/cholesterol (8:1, w/w) as described previously. Briefly, the desired mixtures of lipids were dissolved in a chloroform/methanol mixture (2:1, v/v), dried under nitrogen and then lyophilized for 24 h to remove traces of organic solvent. Dry lipid films were suspended in 10 mM HEPES buffer containing 150 mM NaCl (pH 7.4) by vortex mixing. After five freeze-thawing cycles, the suspension was extruded 15 times through double polycarbonate membranes with 0.1 μm diameter pores on an Avanti mini-extruder apparatus. The lipid concentration was determined by phosphorus analysis as previously reported.\nas §2"}, "[3]": {"experiment": "Analytical RP-HPLC retention time as a measure of peptide hydrophobicity", "format": "physicochemical", "conditions": "RP-HPLC at 25 °C, Zorbax 300 SB-C8 column, linear AB gradient, A 0.1% aqueous TFA, B 0.1% TFA in acetonitrile, 1 mL/min, detection at 210 nm", "procedure": "Among substitutions, the retention times ranged from 32.2 min (peptide V16K) to 40.4 min (peptide V16L), which reflect the pure effects of single amino acid substitutions. Thus, the retention times of peptides reflect the relative hydrophobicity of side chains. Consistent with previous studies, the hydrophobicity of peptide analogs was generally in the following order: Lys < Gly < Ser < Ala < Val < Leu. Glu-substituted peptide was an exception, as it contains a negatively-charged side chain and this should decrease the hydrophobicity of the peptide dramatically.\nPeptides were analyzed on a Shimadzu LC-20A HPLC using a Zorbax 300 SB-C8 column (150 ° 4.6 mm i.d., 5 μm particle size, 300 Å pore size) from Agilent Technologies using a linear AB gradient and a flow rate of 1 mL/min, where solvents A and B were as described above. Absorbance signals of peptides were detected at 210 nm."}, "P. aeruginosa H188": {"system": "P. aeruginosa H188", "format": "cell-based", "procedure": "as §3"}, "E. coli ATCC25922": {"system": "E. coli ATCC25922", "format": "cell-based", "procedure": "as §3"}, "P. aeruginosa ATCC27853": {"system": "P. aeruginosa ATCC27853", "format": "cell-based", "procedure": "as §3"}, "E. coli Clinical Isolate": {"system": "E. coli Clinical Isolate", "format": "cell-based", "procedure": "as §3"}, "[4]": {"conditions": "PC/PG (7:3, w/w) vesicles versus HEPES buffer, lipid:peptide 50:1, peptide 2 μM"}, "[5]": {"conditions": "PC/PG (7:3, w/w) vesicles, lipid and peptide in a molar ratio of 50:1, peptide 2 μM, lipid 100 μM"}, "[6]": {"conditions": "PC/cholesterol (8:1, w/w) vesicles versus HEPES buffer, peptide 2 μM, lipid 100 μM"}, "[7]": {"conditions": "PC/cholesterol (8:1, w/w) vesicles, peptide 2 μM, lipid 100 μM"}}, "note": "Read-outs that look alike come from different tables or passages of the source."}
{"compound": "Ac-KWKSFLKTFKSAKKTKLHTALKAISS-NH2 [Peptide V16K]", "values": [{"measurement": "Tryptophan fluorescence emission maximum", "setting": "[1]", "result": 350, "unit": "nm"}, {"measurement": "MIC", "setting": "E. coli DH5α", "result": 16, "unit": "µg/mL"}, {"measurement": "Blue shift in emission maximum", "setting": "[2]; [4]", "result": 21, "unit": "nm"}, {"measurement": "Tryptophan fluorescence emission maximum", "setting": "[2]; [5]", "result": 329, "unit": "nm"}, {"measurement": "Blue shift in emission maximum", "setting": "[2]; [6]", "result": 1, "unit": "nm"}, {"measurement": "Tryptophan fluorescence emission maximum", "setting": "[2]; [7]", "result": 349, "unit": "nm"}, {"measurement": "tR, retention time during RP-HPLC (relative hydrophobicity)", "setting": "[3]", "result": 32.2, "unit": "min"}, {"measurement": "MIC", "setting": "P. aeruginosa H188; H188, 24 h", "result": 16, "unit": "µg/mL"}, {"measurement": "MIC", "setting": "E. coli ATCC25922; ATCC25922, 24 h", "result": 32, "unit": "µg/mL"}, {"measurement": "MIC", "setting": "P. aeruginosa ATCC27853; ATCC27853, 24 h", "result": 32, "unit": "µg/mL"}, {"measurement": "MIC", "setting": "E. coli Clinical Isolate; Clinical Isolate, 24 h", "result": 8, "unit": "µg/mL"}]}
{"compound": "CC[C@H](C)[C@H](NC(=O)[C@H](C)NC(=O)[C@H](CCCCN)NC(=O)[C@H](CC(C)C)NC(=O)[C@H](C)NC(=O)[C@@H](NC(=O)[C@H](Cc1cnc[nH]1)NC(=O)[C@H](CC(C)C)NC(=O)[C@@H](NC(=O)[C@@H](NC(=O)[C@H](CCCCN)NC(=O)[C@H](CCCCN)NC(=O)[C@H](C)NC(=O)[C@H](CO)NC(=O)[C@H](CCCCN)NC(=O)[C@H](Cc1ccccc1)NC(=O)[C@@H](NC(=O)[C@H](CCCCN)NC(=O)[C@H](CC(C)C)NC(=O)[C@H](Cc1ccccc1)NC(=O)[C@H](CO)NC(=O)[C@H](CCCCN)NC(=O)[C@H](Cc1c[nH]c2ccccc12)NC(=O)[C@H](CCCCN)NC(C)=O)[C@@H](C)O)[C@@H](C)O)C(C)C)[C@@H](C)O)C(=O)N[C@@H](CO)C(=O)N[C@@H](CO)C(N)=O", "note": "[P]", "values": [{"measurement": "Tryptophan fluorescence emission maximum", "setting": "[1]", "result": 350, "unit": "nm"}, {"measurement": "MIC", "setting": "E. coli DH5α", "result": 2, "unit": "µg/mL"}, {"measurement": "Blue shift in emission maximum", "setting": "[2]; [4]", "result": 22, "unit": "nm"}, {"measurement": "Tryptophan fluorescence emission maximum", "setting": "[2]; [5]", "result": 328, "unit": "nm"}, {"measurement": "Blue shift in emission maximum", "setting": "[2]; [6]", "result": 1, "unit": "nm"}, {"measurement": "Tryptophan fluorescence emission maximum", "setting": "[2]; [7]", "result": 349, "unit": "nm"}, {"measurement": "tR, retention time during RP-HPLC (relative hydrophobicity)", "setting": "[3]", "result": 38.2, "unit": "min"}, {"measurement": "MIC", "setting": "P. aeruginosa H188; P. aeruginosa H188, MH broth, 5 × 10^5 CFU/mL, 24 h at 37 °C", "result": 4, "unit": "µg/mL"}, {"measurement": "MIC", "setting": "E. coli ATCC25922; E. coli ATCC25922, MH broth, 5 × 10^5 CFU/mL, 24 h at 37 °C", "result": 1, "unit": "µg/mL"}, {"measurement": "MIC", "setting": "P. aeruginosa ATCC27853; P. aeruginosa ATCC27853, MH broth, 5 × 10^5 CFU/mL, 24 h at 37 °C", "result": 4, "unit": "µg/mL"}, {"measurement": "MIC", "setting": "E. coli Clinical Isolate; E. coli Clinical Isolate, MH broth, 5 × 10^5 CFU/mL, 24 h at 37 °C", "result": 1, "unit": "µg/mL"}]}
